Laboratory results taken from patent US20090075951A1, “Methods and Reagents for the Treatment of Inflammatory Disorders” (CombinatoRx, Inc., priority 2003, published 2009).
Read-outs that look alike come from different tables or passages of the source.

Tests used:
[1] = system: cytokine secretion; test: Suppression of cytokine secretion in vitro by individual tricyclic compounds
Method: Individual tricyclic compounds were tested for their ability to suppress cytokine secretion in vitro.

[2] = system: TNFα secretion from PMA/ionomycin stimulated white blood cells from human buffy coat; test: TNFα secretion assay, PMA/ionomycin stimulation
Method: (§1) Various concentrations of each test compound were added at the time of stimulation. […] After the plate was washed with 0.1% Tween 20/PBS, an HRP-luminescent substrate was added to each well and light intensity measured using a LJL Analyst plate luminometer.

[3] = system: TNFα secretion from LPS stimulated white blood cells from human buffy coat; test: TNFα secretion assay, LPS stimulation
Method: as §1

[4] = read-out: IL-1β LPS percent inhibition
[5] = read-out: IL-2 PI percent inhibition
[6] = read-out: TNFα PI percent inhibition, […]
[7] = Homo sapiens, read-out: TNFα LPS percent inhibition, […]

CNCCCN1c2ccccc2CCc2ccccc21 [Desipramine, desipramine]
inhibition at 0.03 µM [1, 4]: 0% | inhibition at 0.06 µM [1, 4]: 0% | inhibition at 0.5 µM [1, 4]: 11% | inhibition at 1 µM [1, 4]: 13% | inhibition at 2 µM [1, 4]: 10% | inhibition at 4 µM [1, 4]: 10% | inhibition at 8 µM [1, 4]: 10% | inhibition at 16 µM [1, 4]: 3% | inhibition at 32 µM [1, 4]: 9% | inhibition at 64 µM [1, 4]: 36% | inhibition at 0.03 µM [1, 5]: 0% | inhibition at 0.06 µM [1, 5]: 0% | inhibition at 0.5 µM [1, 5]: 0% | inhibition at 1 µM [1, 5]: 0% | inhibition at 2 µM [1, 5]: 0% | inhibition at 4 µM [1, 5]: 0% | inhibition at 8 µM [1, 5]: 8% | inhibition at 16 µM [1, 5]: 38% | inhibition at 32 µM [1, 5]: 68% | inhibition at 64 µM [1, 5]: 76% | inhibition at 0.03 µM ([2]; read-out: TNFα PI percent inhibition, 0.03 μM): 0% | inhibition at 0.06 µM ([2]; read-out: TNFα PI percent inhibition, 0.06 μM): 0% | inhibition at 0.5 µM ([2]; read-out: TNFα PI percent inhibition, 0.50 μM): 0% | inhibition at 1 µM ([2]; read-out: TNFα PI percent inhibition, 1.00 μM): 0% | inhibition at 2 µM ([2]; read-out: TNFα PI percent inhibition, 2.00 μM): 1% | inhibition at 4 µM ([2]; read-out: TNFα PI percent inhibition, 4.00 μM): 17% | inhibition at 8 µM ([2]; read-out: TNFα PI percent inhibition, 8.00 μM): 26% | inhibition at 16 µM [2, 6]: 60% | inhibition at 32 µM [2, 6]: 79% | inhibition at 64 µM [2, 6]: 89% | inhibition at 0.03 µM ([3]; Homo sapiens, read-out: TNFα LPS percent inhibition, 0.03 μM): 0% | inhibition at 0.06 µM ([3]; Homo sapiens, read-out: TNFα LPS percent inhibition, 0.06 μM): 0% | inhibition at 0.5 µM ([3]; Homo sapiens, read-out: TNFα LPS percent inhibition, 0.50 μM): 0% | inhibition at 1 µM ([3]; Homo sapiens, read-out: TNFα LPS percent inhibition, 1.00 μM): 0% | inhibition at 2 µM ([3]; Homo sapiens, read-out: TNFα LPS percent inhibition, 2.00 μM): 0% | inhibition at 4 µM ([3]; Homo sapiens, read-out: TNFα LPS percent inhibition, 4.00 μM): 0% | inhibition at 8 µM ([3]; Homo sapiens, read-out: TNFα LPS percent inhibition, 8.00 μM): 0% | inhibition at 16 µM [3, 7]: 3% | inhibition at 32 µM [3, 7]: 34% | inhibition at 64 µM [3, 7]: 64% | percent inhibition of TNFα secretion ([3]; LPS, Prednisolone 1 μM, Desipramine μM r5-r13: 0,0.5,1,2,4,8,16,32,64): 60.8%
